The text below walks through data of patent US20220016098A1, “ORALLY ADMINISTERED PHARMACEUTICAL COMPOSITION COMPRISING FAB I INHIBITORS AND METHOD FOR PREPARING SAME” (priority 2018, published 2022).

Series [1] deals with MRSA strains (methicillin-resistant Staphylococcus aureus). In words: MIC test on MRSA clinical isolates. The class given is cell-based. Conditions: for MIC: Staphylococcus aureus, MRSA, read-out: MIC60. How it is done: In order to verify the inhibitory effect of the compound of formula 1 on antibiotic-resistant strains, drug susceptibility was evaluated by treating the compound of formula 1 with Staphylococcus aureus phenotype isolated from each patient. […] Appelbaum at Hershey Hospital, who is recognized for its authority in the field of anti-infection worldwide, and about 100 MRSA strains which is currently socially problematic.

In series [2] the test system is Staphylococcus aureus ATCC 29213 (MSSA, standard strain). Nature of the series: Susceptibility test (MIC), standard strain. In kind it is cell-based.
Series [3] relates to Staphylococcus aureus 13B-382 (MRSA, clinical strain). Nature of the series: Susceptibility test (MIC), clinical strain. The class given is cell-based.
Series [4] is described as follows: Solubility of the compound of formula 1 in various solvents (HPLC). The class given is physicochemical. Conditions: thermodynamic from solid. How it is done: Prior to preparing the salt of the compound of formula 1, the compound of formula 1 was analyzed to determine the solubility in various solvents. First, the compound of formula 1 was supersaturated in a pharmaceutically acceptable solvent as shown in Table 5 and stirred in a dark room at room temperature for 12 hours. It was first centrifuged to take a supernatant, and then again filtered with a 0.25 μm PVDF filter to remove insoluble materials remaining in the solution. The filtrate was diluted with methanol and then subjected to HPLC analysis to quantify the solubility. In addition, HPLC analysis conditions are as follows.
20 μL of each of the test solution and the standard solution were tested according to a liquid chromatography method (HPLC) of general test methods of the Korean Pharmacopoeia under the following conditions, and the peak area of the main component of each solution was measured.
Detector: UV spectrophotometer (measurement wavelength 286 nm)
Column: Aegispak C18-L (4.6 mm×250 mm, 5 μm) column
Column temperature: 25° C.
Mobile phase: Acetonitrile:water=3:2

The nature of series [5]: Solubility in distilled water (Experimental Example 6). In kind it is physicochemical. The method, then:
First, an excess of each substance was added to distilled water and mixed at room temperature for 12 hours. After standing for 2 hours to take the supernatant, it was filtered using a filter having 0.25 μm pores. After diluting this in methanol again, HPLC analysis was performed.

≈ marks a conversion by molar mass, not a printed value. Like-named read-outs stand apart in the source and are kept apart here.

Regarding `CC[C@H]1OC(=O)[C@H](C)[C@@H](O[C@H]2C[C@@](C)(OC)[C@@H](O)[C@H](C)O2)[C@H](C)[C@@H](O[C@@H]2O[C@H](C)C[C@H](N(C)C)[C@H]2O)[C@](C)(O)C[C@@H](C)CN(C)[C@H](C)[C@@H](O)[C@]1(C)O` [Azithromycin], the MIC in series [1] (Methicillin-resistant, n = 100) was greater than 64 µg/mL.
As to `CCCCCCCCCC(=O)N[C@@H](Cc1c[nH]c2ccccc12)C(=O)N[C@H](CC(N)=O)C(=O)N[C@@H](CC(=O)O)C(=O)N[C@@H]1C(=O)NCC(=O)N[C@@H](CCCN)C(=O)N[C@@H](CC(=O)O)C(=O)N[C@H](C)C(=O)N[C@@H](CC(=O)O)C(=O)NCC(=O)N[C@H](CO)C(=O)N[C@@H]([C@H](C)CC(=O)O)C(=O)N[C@@H](CC(=O)c2ccccc2N)C(=O)O[C@@H]1C` [Daptomycin], the MIC in series [1] (Methicillin-resistant, n = 100) was determined as 0.5 µg/mL (≈ 0.309 µM).
On to `C[C@H]1COc2c(N3CCN(C)CC3)c(F)cc3c(=O)c(C(=O)O)cn1c23` [Levofloxacin], for which, in series [1] (Methicillin-resistant, n = 100), the MIC was 1 µg/mL (≈ 2.77 µM).
Take `CC(=O)NC[C@H]1CN(c2ccc(N3CCOCC3)c(F)c2)C(=O)O1` [Linezolid]: in series [1] (Methicillin-resistant, n = 100), the MIC was 1 µg/mL (≈ 2.96 µM).
Turning to `CN[C@H](CC(C)C)C(=O)N[C@H]1C(=O)N[C@@H](CC(N)=O)C(=O)N[C@H]2C(=O)N[C@H]3C(=O)N[C@H](C(=O)N[C@H](C(=O)O)c4cc(O)cc(O)c4-c4cc3ccc4O)[C@H](O)c3ccc(c(Cl)c3)Oc3cc2cc(c3O[C@@H]2O[C@H](CO)[C@@H](O)[C@H](O)[C@H]2O[C@H]2C[C@](C)(N)[C@H](O)[C@H](C)O2)Oc2ccc(cc2Cl)[C@H]1O` [Vancomycin], the MIC in series [1] is 1 µg/mL (≈ 0.69 µM); in series [2] it was 0.5 µg/mL (≈ 0.345 µM); in series [3], 1 µg/mL (≈ 0.69 µM).
What is called solubility is how much of the substance goes into solution per volume. For the molecule `Cc1c(N)cccc1Cn1ccc(OCCc2cccs2)cc1=O` [compound of formula 1, 1-(3-amino-2-methylbenzyl)-4-(2-thiophen-2-yl-ethoxy)-1H-pyridin-2-one], the solubility at 12 h in series [4] (PEG 300, organic solvent or mixture, PEG 300, room temperature, read-out: Solubility) is 22000 µg/mL; in series [4] (dichloromethane, organic solvent or mixture, Dichloromethane, room temperature, read-out: Solubility) it was greater than 50000 µg/mL; in series [4] (methanol, organic solvent or mixture, Methanol, room temperature, read-out: Solubility) it was less than 10000 µg/mL; in series [4] (pH 1.2 aqueous solution, pH 1.2, simulated gastric fluid, pH 1.2 aqueous solution, room temperature, read-out: Solubility) it was roughly 900 µg/mL; in series [4] (water, Water, room temperature, read-out: Solubility), 2 µg/mL; in series [4] (water, distilled water / water (neutral), read-out: Solubility in water) it was 2.5 µg/mL. The molecule also had a solubility at 12 h in series [5] (pH 6.8, thermodynamic from solid, distilled water, room temperature, 12 hours) of 2.5 µg/mL. Further, the pH in series [5] (of the solubility test in distilled water) was determined as 6.8.
Teicoplanin: the MIC60 in series [1] (Methicillin-resistant, n = 100) is 1.0 µg/mL.
